Values quoted from earlier work, collected in patent publication US20240418706A1, “QUANTIFICATION OF CIRCULATING REGENERATIVE AND ENDOTHELIAL PROGENITOR CELLS AS PREDICTORS OF HEALTH STATUS” (priority 2022, published 2024).
Like-named read-outs stand apart in the source and are kept apart here.

Tests used:
[1] = tested on: circulating EPC; details: lipid lowering therapy
[2] = tested on: endothelial responsiveness
[3] = >17,000 healthy persons without hyperlipidemia but with elevated high-sensitivity C-reactive protein
[4] = tested on: circulating EPC; details: in vivo
[5] = 6 days of G-CSF at 10 μg/kg
[6] = 114 patients, 56 treated and 58 control
[7] = 41 patients with large anterior wall AMI
[8] = tested on: EPC; details: in vivo

CC(C)c1c(C(=O)Nc2ccccc2)c(-c2ccccc2)c(-c2ccc(F)cc2)n1CC[C@@H](O)C[C@@H](O)CC(=O)O [atorvastatin]
circulating EPC [1]: increase circulating EPC
oxidative stress [1]: reduced oxidative stress

growth hormone: growth hormone, used in "antiaging medicine"
endothelial responsiveness ([2]; healthy volunteers): improve endothelial responsiveness
endothelial responsiveness ([2]; patients with congestive heart failure): improve endothelial responsiveness

CC(C)c1nc(N(C)S(C)(=O)=O)nc(-c2ccc(F)cc2)c1/C=C/[C@@H](O)C[C@@H](O)CC(=O)O [Crestor]
CRP levels [3]: lowering CRP levels
incidence of major cardiovascular incidents [3]: significantly reduced
circulating EPC levels [4]: increase circulating EPC levels

B1: G-CSF: Granulocyte colony stimulating factor, used clinically for mobilization of hematopoietic stem cells (protein, UniProt P09919 31-207, looked up)
Granulocyte …: TPLGPASSLPQSFLLKCLEQVRKIQGDGAALQEKLVSECATYKLCHPEELVLLGHSLGIPWAPLSSCPSQALQLAGCLSQLHSGLFLYQGLLQALEGISPELGPTLDTLQLDVADFATTIWQQMEELGMAPALQPTQGAMPAFASAFQRRAGGVLVASHLQSFLEVSYRVLRHLAQP
myocardial wall at the area of infarct ([5]; four months after the infarct, sustained over a year, compared to controls): thicker myocardial wall
ejection fraction ([5]; in comparison to controls): Statistically significant improvements
pathological remodeling ([5]; in comparison to controls): inhibition of pathological remodeling
infarct size, left ventricular function, or coronary restenosis [6]: no influence
LVEF [7]: improvement in LVEF
pathological remodeling [7]: diminished pathological remodeling
mobilization of EPC [8]: stimulates mobilization of EPC
